This is an account of results in PubChem BioAssay (NCI).

Molecules are shown by their SMILES.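 These data come from cells grown in 96-well plates and exposed to compound for 48 hours at five concentrations. GI50 = concentration required for 50% inhibition of growth. The concentration for full growth arrest is given as TGI.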

For the first experiment, the system named is EKVX NSCLC. Description: growth of human tumour cells (NCI), 48 h.
In turn, `CC(C)=CCC12Cc3ccc(O)cc3C(C(C)CN1)C2C` (stereo not given) showed a TGI of over 100 µM.

Regarding `CC(=O)c1cccc(N(/C=C/C(=O)C(F)(F)F)CC(=O)c2ccc(Cl)cc2)c1`, the GI50 is over 100000 nM and the TGI was over 100 µM.

For `COc1ccc(Cl)cc1Nc1nc(C(F)(F)F)ccc1C(=O)NN`, the GI50 is 2930 nM and the TGI was over 100 µM.

In the case of `C#C[C@]1(O)CC[C@H]2[C@@H]3CC=C4c5nc(Nc6ccccn6)sc5CC[C@]4(C)[C@H]3CC[C@@]21C`, the GI50 was 1720 nM and the TGI came to 9.14 µM.

The compound `CCN(CC)c1ccc(NC(=S)NN(C)C)cc1` displayed a TGI of over 10 µM.

On to `Nc1cc(N)c2nc(-c3ccccc3)c(Oc3ccc(F)cc3)nc2c1`, for which the GI50 was 14600 nM and the TGI was found to be 33.7 µM.

The compound `CC(O)CNC1=CC(=O)C(=O)c2ccccc21` (stereo not given) gave a TGI of 40.2 µM.

Compound `CC1=C(C(=O)NC2CCCCC2)CC(C(=O)NC2CCCCC2)=C(C)N1` gave a TGI of over 100 µM.

For the compound `COc1cc(-c2oc3ccccc3c(=O)c2O)cc(OC)c1OC`, the TGI was over 100 µM.

`N#Cc1ccc(-c2nc(C#N)c(N)o2)cc1`: the TGI was over 10 µM.

Another experiment has as its system MALME-3M melanoma. In words: growth of human tumour cells (NCI), 48 h.
For the compound `CC(C)=CCC12Cc3ccc(O)cc3C(C(C)CN1)C2C` (stereo not given), the TGI is over 100 µM.

Take `CC(=O)c1cccc(N(/C=C/C(=O)C(F)(F)F)CC(=O)c2ccc(Cl)cc2)c1`: the GI50 was over 100000 nM and the TGI was over 100 µM.

In the case of `COc1ccc(Cl)cc1Nc1nc(C(F)(F)F)ccc1C(=O)NN`, the GI50 is 3210 nM and the TGI worked out at 30.2 µM.

With `C#C[C@]1(O)CC[C@H]2[C@@H]3CC=C4c5nc(Nc6ccccn6)sc5CC[C@]4(C)[C@H]3CC[C@@]21C`, the GI50 is 677 nM and the TGI stood at 2.32 µM.

`CCN(CC)c1ccc(NC(=S)NN(C)C)cc1` gave a TGI of over 10 µM.

In the case of `CC(O)CNC1=CC(=O)C(=O)c2ccccc21` (stereo not given), the TGI amounted to 17.7 µM.

For `CC1(C)N=C(N)N=C(N)N1c1ccc(CCc2ccccc2)c(Cl)c1`, the GI50 is 728 nM and the TGI is 19 µM.

For `CC1=C(C(=O)NC2CCCCC2)CC(C(=O)NC2CCCCC2)=C(C)N1`, the TGI is over 100 µM.

Regarding `Cc1ccc(C(=O)Cc2nc3c([nH]c2=O)c(C)nn3-c2ccccc2)c(C)c1`, the TGI is over 10 µM.

As for `Cn1cc(C2=C(c3cn(C)c4ccc(N)cc34)C(=O)NC2=O)c2ccccc21`, the GI50 is over 25000 nM and the TGI is over 25 µM.

With `S=C(N/N=C/c1cc(Cl)cc(Cl)c1)NC12CC3CC(CC(C3)C1)C2`, the GI50 was 5120 nM and the TGI worked out at 50.7 µM.

Regarding `COc1cc(-c2oc3ccccc3c(=O)c2O)cc(OC)c1OC`, the TGI is over 100 µM.

Regarding `C[C@]12CC[C@@H]3c4ccc(O)c([N+](=O)[O-])c4CC[C@H]3[C@@H]1CC[C@@H]2NS(=O)(=O)c1ccc(C(F)(F)F)cc1`, the GI50 is 1990 nM and the TGI turned out to be 5.41 µM.

Consider `N#Cc1ccc(-c2nc(C#N)c(N)o2)cc1`, for which the TGI is over 10 µM.

Another experiment deals with A549 NSCLC. In words: growth of human tumour cells (NCI), 48 h.
`CC(C)=CCC12Cc3ccc(O)cc3C(C(C)CN1)C2C` (stereo not given) displayed a TGI of over 100 µM.

As for `CC(=O)c1cccc(N(/C=C/C(=O)C(F)(F)F)CC(=O)c2ccc(Cl)cc2)c1`, the GI50 was over 100 µM and the TGI was over 100 µM.

For `COc1ccc(Cl)cc1Nc1nc(C(F)(F)F)ccc1C(=O)NN`, the GI50 was 18.4 µM and the TGI is over 100 µM.

On to `C#C[C@]1(O)CC[C@H]2[C@@H]3CC=C4c5nc(Nc6ccccn6)sc5CC[C@]4(C)[C@H]3CC[C@@]21C`, for which the GI50 is 1.94 µM and the TGI was determined as 11.1 µM.

`CCN(CC)c1ccc(NC(=S)NN(C)C)cc1` returned a TGI of over 10 µM.

Regarding `Nc1cc(N)c2nc(-c3ccccc3)c(Oc3ccc(F)cc3)nc2c1`, the GI50 was 24.2 µM and the TGI was 46.3 µM.

On to `CC(O)CNC1=CC(=O)C(=O)c2ccccc21` (stereo not given), for which the TGI was determined as 39.5 µM.

With `CC1(C)N=C(N)N=C(N)N1c1ccc(CCc2ccccc2)c(Cl)c1`, the GI50 is 0.0452 µM and the TGI stood at 14 µM.

Compound `CC1=C(C(=O)NC2CCCCC2)CC(C(=O)NC2CCCCC2)=C(C)N1` showed a TGI of over 100 µM.

Regarding `Cc1ccc(C(=O)Cc2nc3c([nH]c2=O)c(C)nn3-c2ccccc2)c(C)c1`, the TGI is over 10 µM.

`Cn1cc(C2=C(c3cn(C)c4ccc(N)cc34)C(=O)NC2=O)c2ccccc21`: the GI50 was 12.5 µM and the TGI is over 25 µM.

As for `S=C(N/N=C/c1cc(Cl)cc(Cl)c1)NC12CC3CC(CC(C3)C1)C2`, the GI50 was 3.51 µM and the TGI was over 100 µM.

`COc1cc(-c2oc3ccccc3c(=O)c2O)cc(OC)c1OC` returned a TGI of over 100 µM.

For `C[C@]12CC[C@@H]3c4ccc(O)c([N+](=O)[O-])c4CC[C@H]3[C@@H]1CC[C@@H]2NS(=O)(=O)c1ccc(C(F)(F)F)cc1`, the GI50 was 1.98 µM and the TGI was 6.07 µM.

On to `N#Cc1ccc(-c2nc(C#N)c(N)o2)cc1`, for which the TGI is over 10 µM.

Another experiment deals with LOX IMVI melanoma. Description: growth of human tumour cells (NCI), 48 h.
As for `CC(C)=CCC12Cc3ccc(O)cc3C(C(C)CN1)C2C` (stereo not given), the TGI is over 100 µM.

Take `CC(=O)c1cccc(N(/C=C/C(=O)C(F)(F)F)CC(=O)c2ccc(Cl)cc2)c1`: the GI50 was over 100000 nM and the TGI was over 100 µM.

With `COc1ccc(Cl)cc1Nc1nc(C(F)(F)F)ccc1C(=O)NN`, the GI50 was 2570 nM and the TGI was over 65.4 µM.

`C#C[C@]1(O)CC[C@H]2[C@@H]3CC=C4c5nc(Nc6ccccn6)sc5CC[C@]4(C)[C@H]3CC[C@@]21C`: the GI50 is 1290 nM and the TGI turned out to be 2.59 µM.

`CCN(CC)c1ccc(NC(=S)NN(C)C)cc1`: the TGI is over 10 µM.

For `Nc1cc(N)c2nc(-c3ccccc3)c(Oc3ccc(F)cc3)nc2c1`, the GI50 is 43300 nM and the TGI is over 100 µM.

In turn, `CC(O)CNC1=CC(=O)C(=O)c2ccccc21` (stereo not given) showed a TGI of 34.8 µM.

In the case of `CC1(C)N=C(N)N=C(N)N1c1ccc(CCc2ccccc2)c(Cl)c1`, the GI50 is 42.6 nM and the TGI turned out to be 13.5 µM.

Regarding `CC1=C(C(=O)NC2CCCCC2)CC(C(=O)NC2CCCCC2)=C(C)N1`, the TGI was over 100 µM.

As for `Cc1ccc(C(=O)Cc2nc3c([nH]c2=O)c(C)nn3-c2ccccc2)c(C)c1`, the TGI was over 10 µM.

As for `Cn1cc(C2=C(c3cn(C)c4ccc(N)cc34)C(=O)NC2=O)c2ccccc21`, the GI50 is 12200 nM and the TGI is over 25 µM.

For the compound `S=C(N/N=C/c1cc(Cl)cc(Cl)c1)NC12CC3CC(CC(C3)C1)C2`, the GI50 is 6090 nM and the TGI was over 100 µM.

Regarding `COc1cc(-c2oc3ccccc3c(=O)c2O)cc(OC)c1OC`, the TGI was over 100 µM.

For `C[C@]12CC[C@@H]3c4ccc(O)c([N+](=O)[O-])c4CC[C@H]3[C@@H]1CC[C@@H]2NS(=O)(=O)c1ccc(C(F)(F)F)cc1`, the GI50 is 1670 nM and the TGI was found to be 3.07 µM.

`N#Cc1ccc(-c2nc(C#N)c(N)o2)cc1` yielded a TGI of over 10 µM.

For another experiment, the system named is NCI-H23 lung. In words: growth of human tumour cells (NCI), 48 h.
For `CC(C)=CCC12Cc3ccc(O)cc3C(C(C)CN1)C2C` (stereo not given), the TGI was over 100 µM.

Turning to `CC(=O)c1cccc(N(/C=C/C(=O)C(F)(F)F)CC(=O)c2ccc(Cl)cc2)c1`, the GI50 is over 100 µM and the TGI was over 100 µM.

Regarding `COc1ccc(Cl)cc1Nc1nc(C(F)(F)F)ccc1C(=O)NN`, the GI50 is 9.11 µM and the TGI was over 49.5 µM.

Regarding `C#C[C@]1(O)CC[C@H]2[C@@H]3CC=C4c5nc(Nc6ccccn6)sc5CC[C@]4(C)[C@H]3CC[C@@]21C`, the GI50 was 1.67 µM and the TGI was found to be 6.64 µM.

Turning to `CCN(CC)c1ccc(NC(=S)NN(C)C)cc1`, the TGI was over 10 µM.

In the case of `Nc1cc(N)c2nc(-c3ccccc3)c(Oc3ccc(F)cc3)nc2c1`, the GI50 was 20.7 µM and the TGI turned out to be 40.2 µM.

With `CC(O)CNC1=CC(=O)C(=O)c2ccccc21` (stereo not given), the TGI was 39.1 µM.

For `CC1(C)N=C(N)N=C(N)N1c1ccc(CCc2ccccc2)c(Cl)c1`, the GI50 is 0.0791 µM and the TGI was 15 µM.

In turn, `CC1=C(C(=O)NC2CCCCC2)CC(C(=O)NC2CCCCC2)=C(C)N1` displayed a TGI of over 100 µM.

`Cc1ccc(C(=O)Cc2nc3c([nH]c2=O)c(C)nn3-c2ccccc2)c(C)c1` returned a TGI of over 10 µM.

As to `Cn1cc(C2=C(c3cn(C)c4ccc(N)cc34)C(=O)NC2=O)c2ccccc21`, the GI50 was 15.3 µM and the TGI was over 25 µM.

Turning to `S=C(N/N=C/c1cc(Cl)cc(Cl)c1)NC12CC3CC(CC(C3)C1)C2`, the GI50 was 10.6 µM and the TGI was over 100 µM.

The compound `COc1cc(-c2oc3ccccc3c(=O)c2O)cc(OC)c1OC` displayed a TGI of over 100 µM.

As to `C[C@]12CC[C@@H]3c4ccc(O)c([N+](=O)[O-])c4CC[C@H]3[C@@H]1CC[C@@H]2NS(=O)(=O)c1ccc(C(F)(F)F)cc1`, the GI50 is 1.84 µM and the TGI stood at 4.1 µM.

`N#Cc1ccc(-c2nc(C#N)c(N)o2)cc1` returned a TGI of over 10 µM.

The next experiment has as its system HCT-15 colon. Description: growth of human tumour cells (NCI), 48 h.
With `CC(C)=CCC12Cc3ccc(O)cc3C(C(C)CN1)C2C` (stereo not given), the TGI was over 100 µM.
